# According to ChEMBL document CHEMBL5113532, “Design and Characterization of a Natural Arf-GEFs Inhibitor Prodrug CHNQD-01255 with Potent Anti-Hepatocellular Carcinoma Efficacy In Vivo” (J Med Chem, 2022):
# Experiments:
# HepG2 = assay: Antiproliferative activity against human HepG2 cells by MTT assay; format: functional, cell-based
# Bel-7402 = assay: Antiproliferative activity against human Bel-7402 cells by MTT assay; format: functional, cell-based
# [1] = Solubility of the compound in saline/PEG400 (95/5% V/V) at pH 7.4; format: physicochemical
# [2] = Solubility of the compound in saline/DMSO (95/5% V/V) at pH 7.4; format: physicochemical
# [3] = Solubility of the compound in PBS/DMSO (95/5% V/V) at pH 7.2 to 7.4; format: physicochemical
# [4] = Solubility of the compound in 0.9% NaCl at pH 7.4; format: physicochemical
# [5] = Solubility of the compound in saline/solutol HS-15 (90/10% V/V) at pH 7.4; format: physicochemical
# [6] = Solubility of the compound in saline/solutol HS-15 (95/5% V/V) at pH 7.4; format: physicochemical
# [7] = Solubility of the compound in saline/PEG400 (80/20% V/V) at pH 7.4; format: physicochemical
# [8] = Solubility of the compound in saline/DMSO/solutol HS-15 (85/5/10% V/V/V) at pH 7.4; format: physicochemical
# [9] = MRT (0 to t) in ICR mouse at 10 mg/kg, iv measured after 0.083 to 12 hrs by UPLC-MS/MS analysis; format: ADME, organism-based; conditions: in vivo, time 0.083-12 hrs
# [10] = AUC(0 to t) in ICR mouse at 10 mg/kg, iv measured after 0.083 to 12 hrs by UPLC-MS/MS analysis; format: ADME, organism-based; parameters: time upper 12 hrs, dose 10 mg/kg, time lower 0.083 hrs, route iv; conditions: in vivo
# [11] = Clearance in ICR mouse at 45 mg/kg, po measured after 0.083 to 12 hrs by UPLC-MS/MS analysis; format: ADME, organism-based; conditions: in vivo, time 0.083-12 hrs
# [12] = AUC (0 to t) in ICR mouse at 45 mg/kg, po measured after 0.083 to 12 hrs by UPLC-MS/MS analysis; format: ADME, organism-based; parameters: dose 45 mg/kg, time upper 12 hrs, time lower 0.083 hrs, route po; conditions: in vivo
# [13] = Half life in ICR mouse at 10 mg/kg, iv measured after 0.083 to 12 hrs by UPLC-MS/MS analysis; format: ADME, organism-based; conditions: in vivo, time 0.083-12 hrs
# [14] = MRT (0 to t) in ICR mouse at 45 mg/kg, po measured after 0.083 to 12 hrs by UPLC-MS/MS analysis; format: ADME, organism-based; conditions: in vivo, time 0.083-12 hrs
# [15] = Cmax in ICR mouse at 45 mg/kg, po measured after 0.083 to 12 hrs by UPLC-MS/MS analysis; format: ADME, organism-based; parameters: dose 45 mg/kg, time upper 12 hrs, time lower 0.083 hrs, route po; conditions: in vivo
# [16] = Half life in ICR mouse at 45 mg/kg, po measured after 0.083 to 12 hrs by UPLC-MS/MS analysis; format: ADME, organism-based; conditions: in vivo, time 0.083-12 hrs
# [17] = Acute toxicity in ip dosed ICR mouse assessed as maximum tolerated dose; format: organism-based; conditions: in vivo
# [18] = Cmax in ICR mouse at 10 mg/kg, iv measured after 0.083 to 12 hrs by UPLC-MS/MS analysis; format: ADME, organism-based; parameters: time 0.083-12 hrs, dose 10 mg/kg, route iv; conditions: in vivo
# [19] = Apparent volume of distribution in ICR mouse at 10 mg/kg, iv measured after 0.083 to 12 hrs by UPLC-MS/MS analysis; format: ADME, organism-based; conditions: in vivo, time 0.083-12 hrs, read-out: Vz
# [20] = Acute toxicity in po dosed ICR mouse assessed as maximum tolerated dose; format: organism-based; conditions: in vivo
# [21] = Apparent volume of distribution in ICR mouse at 45 mg/kg, po measured after 0.083 to 12 hrs by UPLC-MS/MS analysis; format: ADME, organism-based; conditions: in vivo, time 0.083-12 hrs
# [22] = Oral bioavailability in ICR mouse at 45 mg/kg measured after 0.083 to 12 hrs by UPLC-MS/MS analysis; format: ADME, organism-based; conditions: in vivo, time 0.083-12 hrs
# [23] = Clearance in ICR mouse at 10 mg/kg, iv measured after 0.083 to 12 hrs by UPLC-MS/MS analysis; format: ADME, organism-based; conditions: in vivo, time 0.083-12 hrs
compound,measurement,setting,value
Cc1cncc(C(=O)O[C@@H]2/C=C/C(=O)O[C@@H](C)CCC/C=C/[C@@H]3C[C@H](O)C[C@H]32)c1,IC50,HepG2,> 1 µM
C[C@H]1CCC/C=C/[C@@H]2C[C@H](O)C[C@H]2[C@H](OC(=O)c2cccnc2)/C=C/C(=O)O1,IC50,Bel-7402,0.27 µM
same,IC50,HepG2,> 1 µM
C[C@H]1CCC/C=C/[C@@H]2C[C@H](OC(=O)NCc3cccnc3)C[C@H]2[C@H](O)/C=C/C(=O)O1,IC50,HepG2,> 1 µM
C[C@H]1CCC/C=C/[C@@H]2C[C@H](OC(=O)c3cccnc3)C[C@H]2[C@H](OC(=O)c2cccnc2)/C=C/C(=O)O1,IC50,Bel-7402,> 1 µM
same,IC50,HepG2,> 1 µM
C[C@H]1CCC/C=C/[C@@H]2C[C@H](OC(=O)OCCS)C[C@H]2[C@H](O)/C=C/C(=O)O1,IC50,HepG2,> 1 µM
C[C@H]1CCC/C=C/[C@@H]2C[C@H](OC(=O)NCCO)C[C@H]2[C@H](O)/C=C/C(=O)O1,IC50,HepG2,> 1 µM
COC(=O)O[C@@H]1C[C@H]2[C@H](O)/C=C/C(=O)O[C@@H](C)CCC/C=C/[C@@H]2C1,IC50,HepG2,> 1 µM
C[C@H]1CCC/C=C/[C@@H]2C[C@H](OC(=O)c3cncc(F)c3)C[C@H]2[C@H](OC(=O)c2cncc(F)c2)/C=C/C(=O)O1,IC50,HepG2,> 1 µM
C[C@H]1CCC/C=C/[C@@H]2C[C@H](OC(=O)OCCSSCCO)C[C@H]2[C@H](O)/C=C/C(=O)O1,IC50,HepG2,> 1 µM
C[C@H]1CCC/C=C/[C@@H]2C[C@H](O)C[C@H]2[C@H](OC(=O)c2ccncc2)/C=C/C(=O)O1,IC50,HepG2,0.65 µM
C[C@H]1CCC/C=C/[C@@H]2C[C@H](OC(=O)c3ccncc3)C[C@H]2[C@H](O)/C=C/C(=O)O1,IC50,HepG2,0.46 µM
COc1cccc2c1C(=O)c1c(O)c3c(c(O)c1C2=O)C[C@@](O)(C(=O)CO)C[C@@H]3O[C@H]1C[C@H](N)[C@H](O)[C@H](C)O1 [DOXORUBICIN],IC50,Bel-7402,> 1 µM
same,IC50,HepG2,0.39 µM
C[C@H]1CCC/C=C/[C@@H]2C[C@H](OC(=O)OCc3cnc4ccccc4c3)C[C@H]2[C@H](O)/C=C/C(=O)O1,IC50,HepG2,> 1 µM
C[C@H]1CCC/C=C/[C@@H]2C[C@H](OC(=O)c3cncc(F)c3)C[C@H]2[C@H](O)/C=C/C(=O)O1,IC50,HepG2,0.68 µM
C[C@H]1CCC/C=C/[C@@H]2C[C@H](O)C[C@H]2[C@H](OC(=O)OCc2cccnc2)/C=C/C(=O)O1,IC50,Bel-7402,0.27 µM
same,IC50,HepG2,> 1 µM
C[C@H]1CCC/C=C/[C@@H]2C[C@H](OC(=O)OCc3ccccn3)C[C@H]2[C@H](O)/C=C/C(=O)O1,IC50,HepG2,> 1 µM
C[C@H]1CCC/C=C/[C@@H]2C[C@H](O)C[C@H]2[C@H](OC(=O)c2ccccn2)/C=C/C(=O)O1,IC50,HepG2,0.96 µM
C[C@H]1CCC/C=C/[C@@H]2C[C@H](OC(=O)NCc3ccccc3)C[C@H]2[C@H](O)/C=C/C(=O)O1,IC50,HepG2,> 1 µM
C[C@H]1CCC/C=C/[C@@H]2C[C@H](OC(=O)OCc3ccncc3)C[C@H]2[C@H](O)/C=C/C(=O)O1,IC50,Bel-7402,> 1 µM
same,IC50,HepG2,> 1 µM
Cc1cncc(C(=O)O[C@@H]2C[C@H]3[C@H](O)/C=C/C(=O)O[C@@H](C)CCC/C=C/[C@@H]3C2)c1,IC50,HepG2,> 1 µM
C[C@H]1CCC/C=C/[C@@H]2C[C@H](OC(=O)c3ccccn3)C[C@H]2[C@H](O)/C=C/C(=O)O1,IC50,HepG2,0.29 µM
C[C@H]1CCC/C=C/[C@@H]2C[C@H](OC(=O)CN(C)C)C[C@H]2[C@H](O)/C=C/C(=O)O1,IC50,Bel-7402,> 1 µM
same,IC50,HepG2,> 1 µM
COc1ccc(COC(=O)O[C@@H]2C[C@H]3[C@H](O)/C=C/C(=O)O[C@@H](C)CCC/C=C/[C@@H]3C2)cn1,IC50,HepG2,> 1 µM
C[C@H]1CCC/C=C/[C@@H]2C[C@H](OC(=O)c3ccncc3)C[C@H]2[C@H](OC(=O)c2ccncc2)/C=C/C(=O)O1,IC50,HepG2,> 1 µM
C[C@H]1CCC/C=C/[C@@H]2C[C@H](OC(=O)OCc3cccnc3)C[C@H]2[C@H](OC(=O)OCc2cccnc2)/C=C/C(=O)O1,IC50,Bel-7402,0.43 µM
same,IC50,HepG2,> 1 µM
C[C@H]1CCC/C=C/[C@@H]2C[C@H](OC(=O)OCCc3cccnc3)C[C@H]2[C@H](O)/C=C/C(=O)O1,IC50,Bel-7402,> 1 µM
same,IC50,HepG2,0.85 µM
C[C@H]1CCC/C=C/[C@@H]2C[C@H](OC(=O)c3cccnc3)C[C@H]2[C@H](O)/C=C/C(=O)O1,IC50,Bel-7402,0.39 µM
same,solubility,[1],< 1 mg/mL
same,solubility,[2],< 1 mg/mL
same,IC50,HepG2,0.95 µM
same,solubility,[3],< 1 mg/mL
same,solubility,[4],< 1 mg/mL
same,solubility,[5],< 1 mg/mL
same,solubility,[6],< 1 mg/mL
same,solubility,[7],< 1 mg/mL
same,solubility,[8],3 mg/mL
C[C@H]1CCC/C=C/[C@@H]2C[C@H](O)C[C@H]2[C@H](O)/C=C/C(=O)O1 [BREFELDIN A],IC50,Bel-7402,0.07 µM
same,MRT last,[9],0.84 h
same,AUC(0-t),[10],4.84 µg·h/mL
same,solubility,[1],< 1 mg/mL
same,CL/F,[11],10.4 L/h/kg
same,AUC(0-t),[12],4.13 µg·h/mL
same,solubility,[2],< 1 mg/mL
same,IC50,HepG2,0.08 µM
same,half-life,[13],9.05 h
same,MRT last,[14],1.4 h
same,Cmax,[15],7.14 µg/mL
same,solubility,[3],< 1 mg/mL
same,half-life,[16],2.12 h
same,solubility,[4],< 1 mg/mL
same,MTD,[17],< 50 mg/kg
same,solubility,[5],< 1 mg/mL
same,Cmax,[18],13.2 µg/mL
same,Vd,[19],20.6 L/kg
same,MTD,[20],< 506 mg/kg
same,Vz,[21],31.87132 L/kg
same,bioavailability,[22],19%
same,solubility,[6],< 1 mg/mL
same,clearance,[23],1.58 L/h/kg
same,solubility,[7],< 1 mg/mL
same,solubility,[8],1 mg/mL
C[C@H]1CCC/C=C/[C@@H]2C[C@H](OC(=O)NCc3ccncc3)C[C@H]2[C@H](O)/C=C/C(=O)O1,IC50,HepG2,> 1 µM
C[C@H]1CCC/C=C/[C@@H]2C[C@H](OC(=O)Nc3ccccc3)C[C@H]2[C@H](O)/C=C/C(=O)O1,IC50,HepG2,> 1 µM
C[C@H]1CCC/C=C/[C@@H]2C[C@H](OC(=O)OCc3cncc(F)c3)C[C@H]2[C@H](O)/C=C/C(=O)O1,IC50,HepG2,> 1 µM
C[C@H]1CCC/C=C/[C@@H]2C[C@H](OC(=O)c3ccccn3)C[C@H]2[C@H](OC(=O)c2ccccn2)/C=C/C(=O)O1,IC50,HepG2,0.34 µM
C[C@H]1CCC/C=C/[C@@H]2C[C@H](O)C[C@H]2[C@H](OC(=O)c2cncc(F)c2)/C=C/C(=O)O1,IC50,HepG2,0.93 µM
